In USRE48461E1, “Modulation of androgen receptor expression” (Ionis Pharmaceuticals, Inc., priority 2012, dated 2021):
Oligonucleotides are written 5' to 3', each unit as a sugar letter and its base; * is a phosphorothioate linkage, no mark a phosphodiester; rarer units and linkages stand in square brackets, end groups in braces. Plain capitals give the bases only. k = constrained ethyl (cEt); [5mC] = 5-methylcytosine; d = 2'-deoxy (DNA)

Assays:
AR-V7 = assay: Western blot of AR-V7 in MDV3100-resistant C4-2B cells; format: cell-based, human
Description: (§1) ISIS 549372, ISIS 549434, and ISIS 554221 at 1 μM concentration of antisense oligonucleotide were each added to the culture media at 1 μM concentration for free uptake by the cells. After a treatment period of 2 days, cells were harvested in RIPA buffer containing protease inhibitors. The presence of bands for full-length AR, as well as the variant form, AR-V7, was detected by western blot using AR antibody (N-20, Santa Cruz).
(§2) Western analysis of full-length AR, as well as the AR-V7 variant, was also conducted in a manner similar to the assay described above.

total AR mRNA = assay: Total (full-length) AR mRNA in C4-2B MR cells, free uptake; format: cell-based, human; settings: C4-2B MR cells, 0.04-5.00 μM free uptake, 24 hrs
Outline: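 Cells grown in RPMI1640 with 10% FBS received antisense oligonucleotides at 0.04, 0.20, 1.00 and 5.00 μM in the medium by free uptake, no transfection agent. After 24 hrs, total AR mRNA quantified by real-time qPCR with primer probe set RTS3559.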

CWR22-RV1 cells = assay: CWR22-RV1 cell proliferation (CellTiter 96); format: cell-based, human; settings: RNAiMax, 6 days
Description: (§3) CWR22-RV1 cells were plated and transfected using RNAiMax reagent (Life Technologies) with ISIS oligonucleotides at 1.7 nM, 5.0 nM, 16.7 nM, or 50 nM concentrations. ISIS 347526 was included as a negative control. After a treatment period of 6 days, the target reduction and proliferative capacity of the cancer cells was measured.
(§4) Antisense inhibition of AR full-length mRNA was measured with the RTS3559 primer probe set. The results are presented in Table 63 as percent inhibition relative to non-treated cells. The reduction in V7 splice variant of the AR mRNA was also measured by RT-PCR using SYBR Green staining (Hu, R. et al., Cancer Res. 2009. 69: 16-22). The results are presented in Table 64, as percent reduction, relative to non-treated cells. Cell proliferation was measured with CellTiter 96® AQueous One Solution Cell Proliferation kit (Promega), following the manufacturer's instructions. Results are presented in Table 65 as percent inhibition of proliferation, relative to non-treated cells.

AR mRNA [1] = assay: AR mRNA in C4-2B cells by free uptake (hAR_LTS00943); format: cell-based, human; settings: 24 hrs; for Percent inhibition of AR full-length mRNA: free uptake
Description: (§5) Cells were plated at a concentration of 1,000 cells/well in 96-well plates to measure cell proliferation, and at 4,000 cells/well to measure target reduction. ISIS 549458, ISIS 549372, ISIS 549434, and ISIS 554221 were added individually at 0.04 μM, 0.20 μM, 1.00 μM, or 5.00 μM. After an incubation period of 24 hrs, mRNA levels were measured using hAR_LTS00943.

AR full-length mRNA = AR full-length mRNA in CWR22-RV1 cells (RNAiMax, RTS3559); format: cell-based, human; settings: 6 days
Description: as §3, §4

full-length AR = assay: Western blot of full-length AR in MDV3100-resistant C4-2B cells; format: cell-based, human
Description: as §1, §2

KLK2 mRNA = KLK2 mRNA (AR target gene) in C4-2B MR cells; format: cell-based, human; settings: C4-2B MR cells, 0.04-5.00 μM
C4-2B cells [2] = assay: C4-2B cell proliferation by free uptake (MTT); format: cell-based, human; settings: day 6
Description: as §5
On day 6, cells plated for measuring proliferation were incubated with MTT reagent until the development of color. Color intensity was measured using a spectrophotometer at 490 nm.

KLK3 mRNA = KLK3 mRNA (AR target gene) in C4-2B MR cells; format: cell-based, human; settings: C4-2B MR cells, 0.04-5.00 μM
C4-2B cells [3] = assay: C4-2B cell proliferation, ASO in combination with MDV3100 (Example 19); format: cell-based, human
Description: C4-2B cells were plated at 1,500 cells per well. […] ISIS 347526 was included as a negative control. […] After a treatment period of 6 days, the proliferative capacity of the cancer cells was measured with CellTiter 96® AQueous One Solution Cell Proliferation kit (Promega), following the manufacturer's instructions. Results are presented in Table 46 as percent inhibition of proliferation, relative to non-treated cells. Treatment of the cells with ISIS 549372 or ISIS 549458 reduced proliferation of the cells more extensively than treatment with ISIS 554221.

[4] = system: V7 splice variant of the AR mRNA; assay: AR V7 splice variant mRNA in CWR22-RV1 cells (RT-PCR SYBR Green); format: cell-based, human; settings: RNAiMax, 6 days
Description: as §3, §4

C4-2B MR cells = assay: Proliferation of MDV3100-resistant C4-2B cells (CellTiter 96); format: cell-based, human; settings: 0.04-5.00 μM, 6 days
Outline: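 Antisense oligonucleotides were added to the culture medium at 0.04, 0.20, 1.00 and 5.00 μM, with a non-targeting oligonucleotide as negative control. After 6 days of treatment, proliferation was read with CellTiter 96 AQueous One. Values are percent inhibition relative to untreated cells.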

[5] = cynomolgus monkey, in vivo, sc, 40 mg/kg
[6] = cynomolgus monkey, in vivo, sc, 40 mg/kg; remark: listed apart in the source
[7] = cynomolgus monkey, in vivo, sc, 40 mg/kg; remark: listed apart in the source
AR mRNA [8] = assay: AR mRNA expression in MDA-MB-453 breast cancer orthotopic model; format: in vivo, human; settings: Study 1; TB-interface, normalized to actin; 50 mg/kg s.c. five times a week for 4 weeks
MDA-MB-453 tumor = assay: Tumor volume in MDA-MB-453 breast cancer orthotopic model; format: in vivo, NSG mice; settings: 50 mg/kg s.c. five times a week for 4 weeks; for Tumor volume: Study 1, MDA-MB-453 orthotopic, NSG mice
[9] = cynomolgus monkey, in vivo, sc, 40 mg/kg; remark: listed apart in the source
[10] = cynomolgus monkey, in vivo, sc, 40 mg/kg; remark: listed apart in the source
[11] = C4-2B MR cells, 1 μM ASO free uptake, 2 days (Example 15)

Sequence: AAGTTGTAGTAGTCGC (kA*kA*kG*dT*dT*dG*dT*dA*dG*dT*dA*dG*dT*k[5mC]*kG*k[5mC]) [ISIS 549372, targets exon 1]
- levels of AR-V7 (Western analysis) (AR-V7; C4-2B MR cells (Example 16)): reduced levels of full-length AR and AR-V7
- AR-V7 (western blot) (AR-V7; [11]): reduced full-length AR and AR-V7 more extensively than treatment with either ISIS 554221 or ISIS 549434
- total AR transcript levels (total AR mRNA): reduced total AR transcript levels in a dose dependent manner more extensively than treatment with ISIS 554221
- Percent inhibition of cell proliferation (CWR22-RV1 cells; dose 5.0 nM): 0%
- Percent inhibition of cell proliferation (CWR22-RV1 cells; dose 16.7 nM): 25%
- Percent inhibition of cell proliferation (CWR22-RV1 cells; dose 50.0 nM): 53%
- AR mRNA expression (AR mRNA [1]; free uptake 0.04-5.00 μM): inhibited AR mRNA expression more potently than ISIS 554221
- Percent inhibition of AR full-length mRNA (AR mRNA [1]; dose 0.04 μM): 10%
- Percent inhibition of AR full-length mRNA (AR mRNA [1]; dose 0.20 μM): 36%
- Percent inhibition of AR full-length mRNA (AR mRNA [1]; dose 1.00 μM): 73%
- Percent inhibition of AR full-length mRNA (AR mRNA [1]; dose 5.00 μM): 80%
- Percent inhibition of AR full-length mRNA (AR full-length mRNA; dose 5.0 nM): 53%
- Percent inhibition of AR full-length mRNA (AR full-length mRNA; dose 16.7 nM): 64%
- Percent inhibition of AR full-length mRNA (AR full-length mRNA; dose 50.0 nM): 78%
- levels of full-length AR (Western analysis) (full-length AR; C4-2B MR cells (Example 16)): reduced levels of full-length AR and AR-V7
- full-length AR (western blot) (full-length AR; [11]): reduced full-length AR and AR-V7 more extensively than treatment with either ISIS 554221 or ISIS 549434
- AR target gene KLK2 mRNA levels (KLK2 mRNA): reduced target gene levels in a dose dependent manner more extensively than treatment with ISIS 554221
- Percent inhibition of cell proliferation (C4-2B cells [2]; dose 0.04 μM): 8%
- Percent inhibition of cell proliferation (C4-2B cells [2]; dose 0.20 μM): 34%
- Percent inhibition of cell proliferation (C4-2B cells [2]; dose 1.00 μM): 44%
- Percent inhibition of cell proliferation (C4-2B cells [2]; dose 5.00 μM): 45%
- AR target gene KLK3 mRNA levels (KLK3 mRNA): reduced target gene levels in a dose dependent manner more extensively than treatment with ISIS 554221
- Percent inhibition of C4-2B cell proliferation with 0.1 μM ASO (C4-2B cells [3]; 0.1 μM ASO + MDV3100 1 μM, 6 days): 66%
- Percent inhibition of C4-2B cell proliferation with 0.1 μM ASO (C4-2B cells [3]; 0.1 μM ASO + MDV3100 […], 6 days): 44%
- Percent inhibition of C4-2B cell proliferation with 0.1 μM ASO (C4-2B cells [3]; 0.1 μM ASO, MDV3100 0 μM, 6 days): 23%
- Percent inhibition of C4-2B cell proliferation with 0.2 μM ASO (C4-2B cells [3]; 0.2 μM ASO + MDV3100 1 μM, 6 days): 77%
- Percent inhibition of C4-2B cell proliferation with 0.2 μM ASO (C4-2B cells [3]; 0.2 μM ASO + MDV3100 […], 6 days): 69%
- Percent inhibition of C4-2B cell proliferation with 0.2 μM ASO (C4-2B cells [3]; 0.2 μM ASO, MDV3100 0 μM, 6 days): 59%
- synergy with MDV3100 (C4-2B cells [3]; C4-2B cells): synergistic with MDV3100
- cell proliferation inhibited, combination (C4-2B cells [3]; C4-2B cells, 0.1 μM ASO in combination with […] MDV3100): 66%
- inhibited cell proliferation, ASO alone (C4-2B cells [3]; C4-2B cells, ASO alone at 0.1 μM): 23%
- reduced cell proliferation, ASO alone (C4-2B cells [3]; C4-2B cells, ASO alone, 6 days, Table 46 (0.1 μM ASO)): 59%
- prostate cancer cell proliferation, ASO in combination with MDV3100 (C4-2B cells [3]; C4-2B cells, versus equal molar ISIS 554221 + MDV3100): inhibited prostate cancer cell proliferation to a greater extent than an equal molar concentration of ISIS 554221 in combination of MDV3100
- Percent inhibition of AR splice variant, V7 ([4]; dose 5.0 nM): 35%
- Percent inhibition of AR splice variant, V7 ([4]; dose 16.7 nM): 56%
- Percent inhibition of AR splice variant, V7 ([4]; dose 50.0 nM): 82%
- proliferation of C4-2B MR cells (C4-2B MR cells): reduced proliferation of the cells in a dose dependent manner more extensively than treatment with ISIS 554221

Sequence: TGATTTAATGGTTGCA [ISIS 569216] (cEt/MOE gapmer chemistry, further chemistry not given here)
- ALT [5]: 75 IU/L
- AST [5]: 93 IU/L
- Albumin [5]: 3.7 g/dL
- HCT [6]: 43%
- Hemoglobin [6]: 12.8 g/dL
- Platelets [6]: 504000 µL
- RBC [6]: 5.6e+06 µL
- WBC [6]: 12200 µL
- C3 (% of baseline) [7]: 94 % of baseline
- CRP [7]: 3.6 mg/dL
- AR mRNA expression inhibited compared to the control group (AR mRNA [8]): 48%
- Tumor volume (MDA-MB-453 tumor; Day 16): 134
- Tumor volume (MDA-MB-453 tumor; Day 23): 142
- Tumor volume (MDA-MB-453 tumor; Day 30): 173
- Tumor volume (MDA-MB-453 tumor; Day 37): 125
- Tumor volume (MDA-MB-453 tumor; Day 44): 92
- Tumor volume (MDA-MB-453 tumor; Day 51): 73
- Tumor volumes (MDA-MB-453 tumor; Study 1, MDA-MB-453 model): tumor volumes were significantly decreased
- Plasma BUN [9]: 28.4 mg/dL
- Plasma Creatinine [9]: 0.81 mg/dL
- Body Wt [10]: 2.6 kg
- Heart weight [10]: 9.3 g
- Kidney weight [10]: 15 g
- Liver weight [10]: 71 g
- Mesenteric lymph nodes weight [10]: 2.7 g
- Spleen weight [10]: 4.9 g
